Assay results published in article PMC535546, “Assessment of FIV-C infection of cats as a function of treatment with the protease inhibitor, TL-3” (Retrovirology, 2004).

Assays:
HIV-1 = system: HIV-1; parameters: method as in PMID 9448264; conditions: cited from earlier work
FIV = system: FIV; parameters: method as in PMID 9448264; conditions: cited from earlier work
[1] = molecular target: FIV-C protease mutant D105G (HIV88N) (Feline immunodeficiency virus, UniProt P16088, D143G)
From the text: (§1) Complementary DNA (cDNA) was synthesized from isolated plasma viral RNA of infected cats. […] The amplified PCR product was gel purified and cloned into pCR-TOPOII vector (Invitrogen, Carlsbad, CA) for sequencing. Selected DNA of mutants, N55D, H72R, D105G, and M107R were digested with Nde I/Hind III and ligated into pET21a expression vector (Novagen). The mutant FIV-C proteases were expressed in Rosetta pLysS cells (Novagen) and purified as previously described.
(§2) Enzyme kinetics of FIV-C protease were assayed on the flourogenic substrate Arg-Ala-Leu-Thr-Lys(Abz)-Val-Gln/Phe(NO2)-Val-Gln-Ser-Lys-Gly-Arg-NH2. […] Inhibitor constant (Ki) of TL-3 against mutant FIV-C protease was analyzed as described.

[2] = system: SIV (simian immunodeficiency virus); parameters: method as in PMID 9448264; conditions: cited from earlier work
[3] = Tolerability of oral TL-3 in uninfected control cats; type: in vivo, cat; conditions: TL-3 treated controls, 20 mg then 40 mg oral every eight hours
Protocol: (§3) All procedures for care of cats during dosing as well as dosing procedures were mandated by TSRI's IACUC. Oral TL-3 (L-Iditol,1,2,5,6-tetradeoxy-1,6-diphenyl-2,5-bis [N-[(phenylmethoxy)carbonyl]-L-alanyl-L-valyl]amino]) treatment was initiated in 12 cats, three days prior to infection of ten of the twelve animals with FIV-C. All TL-3 treated animals received 20 mg TL-3 by capsules at eight hour intervals, for approx. the first 7.5 weeks of the experiment. Dosage was then doubled to 40 mg TL-3 per dose at eight hour intervals for an additional week for the two control animals and the eight surviving animals in the TL-3 treated, infected cohort.

FIV-PPR = FIV-PPR infected cats; cited from earlier work
[4] = molecular target: T1, FIV-C protease mutant H72R (HIV63L) (Feline immunodeficiency virus, UniProt P16088, H110R); experiment: Inhibitor constant (Ki) of TL-3 against mutant FIV-C protease H72R; type: biochemical; conditions: PR mutation H72R (HIV63L), cat 231
T1 construct: adds a stop codon and a Hind III restriction site to the C-terminus of the protease; Met-Ala N-terminal extension (printed 'methionine, and alkaline'; the primer codes ATG GCA) (N); made in house; host or cells: E. coli Rosetta pLysS, pET21a
From the text: as §1, §2

FIV-C (CABCpady00C) = experiment: FIV-C infection of cats with oral TL-3 treatment (viral load, disease, survival); type: in vivo, cat
Protocol: Twenty-two female specific pathogen-free (SPF) cats were randomly divided into five groups. Group 0 consisted of two cats, which received TL-3 treatment without viral infection and were considered controls. Group 1 (n = 5) received 0.1 ml (10^5 RNA copies/ml) of FIV-C-infected plasma I.V. with TL-3 drug treatment. Group 2 (n = 5) received 0.1 ml FIV-C-infected plasma without TL-3 treatment. Group 3 (n = 5) received 0.5 ml FIV-C-infected plasma with TL-3 and Group 4 (n = 5) received 0.5 ml FIV-C-infected plasma without TL-3 treatment. Blood (1 ml) was drawn from all cats prior to the start of the experiment, at weekly intervals for the first four weeks after infection, and at bi-monthly intervals from week 4 until the end of the study. Complete blood counts were assessed as a function of infection and TL-3 treatment. In addition, quantitative reverse transcription PCR (QRT-PCR) analyses were performed to assess plasma viral load. All animals were continuously observed for any changes in general health. No significant differences were noted between viral load or disease phenotype between the two plasma dosages used in infection and subsequent discussion will not distinguish between these two groups.
Plasma samples (10^5 RNA copies/ml) from a cat, that had died from an acute infection with CABCpady00C (FIV-C), were kindly provided by Dr. E. Hoover, of Colorado State University. Cats were injected I.V. with either 0.1 ml (10^5 RNA copies/ml) or 0.5 ml of plasma.
as §3
Animals were examined daily and in case of health concerns further therapy/diagnostics were initiated. Animals with abnormal weight, or on antibiotics were placed on supplemental feeding with moist food and Nutrical. Dehydrated animals received subcutaneous fluid therapy. More affected animals received supportive care and medications, consisting of BID administration of antibiotics (Baytril), BID subcutaneous fluid therapy, BID temperature evaluation, BID application of antibiotic ophthalmic ointment supportive care. Any animals that required extensive supportive care (TID fluid therapy, TID force feeding) were euthanized. Euthanasia of research animals was conducted with strict adherence to NIH Office of Laboratory Animal Welfare protocols.
Plasma for weeks 0, 2, 4, 6 (terminal points for cats 215, 221, and 229), 6.5 (terminal points for cats 219, 220, and 234), and 8, were isolated from whole blood by centrifugation and stored at -20°C. Viral RNA was extracted using the QiaAmp Viral RNA Isolation Kit (Qiagen, Valencia, CA) according to manufacturer's instructions with slight modifications: Plasma samples (280 μl) were lysed in buffer AVL (1,120 μl) (Qiagen) for 10 minutes at room temperature in the presence of carrier RNA (10 μg/ml) and an external Kanamycin (KAN) RNA spike. Equal amounts of the external RNA spike (10^9 copies RNA /280 μl plasma), corresponding to the 1.2 kb KAN gene (Promega, Madison, WI), was used to normalize plasma volumes between samples and to correct for sample loss from viral RNA extraction and cDNA synthesis. An on-column DNase/ RNase free (Qiagen) incubation step for 10 minutes at room temperature was added to remove residual cellular DNA. […]

[5] = molecular target: T2, FIV-C protease mutant N55D (HIV46M) (Feline immunodeficiency virus, UniProt P16088, N93D); experiment: Inhibitor constant (Ki) of TL-3 against mutant FIV-C protease N55D; type: biochemical; conditions: PR mutation N55D (HIV46M), cat 231
T2 construct: adds a stop codon and a Hind III restriction site to the C-terminus of the protease; Met-Ala N-terminal extension (printed 'methionine, and alkaline'; the primer codes ATG GCA) (N); made in house; host or cells: E. coli Rosetta pLysS, pET21a
From the text: as §1, §2

wild-type FIV-C protease = experiment: Inhibitor constant (Ki) of TL-3 against wild-type FIV-C protease, fluorogenic substrate; type: biochemical, feline immunodeficiency virus (FIV-C); conditions: wildtype PR
From the text: as §1, §2

CC(C)[C@H](NC(=O)[C@H](C)NC(=O)OCc1ccccc1)C(=O)N[C@@H](Cc1ccccc1)[C@@H](O)[C@H](O)[C@H](Cc1ccccc1)NC(=O)[C@@H](NC(=O)[C@H](C)NC(=O)OCc1ccccc1)C(C)C [TL-3]
inhibition of infection in vitro (HIV-1): inhibits | inhibition of infection in vitro (FIV): inhibits | resistance against TL-3 relative to wild type protease ([1]; D105G mutant vs wild type FIV-C protease): 5 fold | Ki ([1]; read-out: Ki vs TL-3, PR mutation D105G (HIV88N), cloned from cats 231 and 222): 47.3 nM | inhibition of infection in vitro [2]: inhibits | adverse effects [3]: No adverse effects | effect on delays in brainstem auditory evoked potentials (BAEPs) (FIV-PPR): could reverse this effect | effect on neurologic alterations in the CNS (FIV-PPR): significant protective effect | plasma viral loads (FIV-PPR): lowered plasma viral loads | Ki [4]: 10.9 nM | animals that had lost weight (FIV-C (CABCpady00C); 6 weeks post infection, + TL-3 cohort, three also in -TL-3 cohort): three | animals that required euthanasia (FIV-C (CABCpady00C); TL-3 treated group, of six euthanized, four from untreated cohort): two | average (peak) viral loads vs untreated animals (FIV-C (CABCpady00C); acute phase, did not reach statistical significance): lower | animals showing clinical signs of debilitating acute phase disease (FIV-C (CABCpady00C); by week 6 post infection, TL-3 treated groups, of seven affected, four untreated): three | prevention of viremia (FIV-C (CABCpady00C); oral monotherapy, high dose FIV-C): did not prevent viremia | plasma viremia, TL-3 treated vs untreated cohorts (FIV-C (CABCpady00C); week 2 post infection): little differences in viral loads | animals with viral loads below detection limits (FIV-C (CABCpady00C); week 8 post infection, surviving TL-3 treated cats, oral 20 mg every eight hours, untreated: one of six): four of 8 and half | Ki [5]: 9.1 nM | Ki (wild-type FIV-C protease): 9.9 nM
